The experiment addresses dihydropteroate synthase (DHPS, FolP1) (Mycobacterium tuberculosis, UniProt P9WND1). The format is biochemical.

The structures appear in SMILES notation.

Chain of dihydropteroate synthase (DHPS, FolP1) (P9WND1 whole entry): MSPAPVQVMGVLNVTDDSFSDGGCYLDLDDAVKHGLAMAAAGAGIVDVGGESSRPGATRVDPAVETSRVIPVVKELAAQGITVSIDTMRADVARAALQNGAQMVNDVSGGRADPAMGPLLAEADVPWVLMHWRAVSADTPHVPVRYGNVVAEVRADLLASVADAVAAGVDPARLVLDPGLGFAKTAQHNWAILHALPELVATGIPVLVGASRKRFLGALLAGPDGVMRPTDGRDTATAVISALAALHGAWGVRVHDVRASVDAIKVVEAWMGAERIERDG

Turning to `Nc1ccc(C(=O)O)c(O)c1` [PAS, para-aminosalicylic acid], the “in vitro turnover assay with purified recombinant enzyme” value is “purified recombinant enzymes confirmed that PAS was a kinetically and chemically competent substrate for M. tuberculosis FolP1”.
